Legend:
Assay in all cases: KINOMEscan competition binding
Settings in all cases: compound 10.0 µM
EPHA4 (human) = EPHA4 (human) (UniProt P54764)
RPS6KA5 KD2 (human) = RPS6KA5 KD2 (human) (UniProt O75582)
STK17B (human) = STK17B (human) (UniProt O94768)
RPS6KA6 KD2 (human) = RPS6KA6 KD2 (human) (UniProt Q9UK32)
AKT1 (human) = AKT1 (human) (UniProt P31749)
CLK4 (human) = CLK4 (human) (UniProt Q9HAZ1)
FRK (human) = FRK (human) (UniProt P42685)
MST1R (human) = MST1R (human) (UniProt Q04912)
MAP4K2 (human) = MAP4K2 (human) (UniProt Q12851)
MAP4K2 (human), sequence (Q12851 whole entry, looked up): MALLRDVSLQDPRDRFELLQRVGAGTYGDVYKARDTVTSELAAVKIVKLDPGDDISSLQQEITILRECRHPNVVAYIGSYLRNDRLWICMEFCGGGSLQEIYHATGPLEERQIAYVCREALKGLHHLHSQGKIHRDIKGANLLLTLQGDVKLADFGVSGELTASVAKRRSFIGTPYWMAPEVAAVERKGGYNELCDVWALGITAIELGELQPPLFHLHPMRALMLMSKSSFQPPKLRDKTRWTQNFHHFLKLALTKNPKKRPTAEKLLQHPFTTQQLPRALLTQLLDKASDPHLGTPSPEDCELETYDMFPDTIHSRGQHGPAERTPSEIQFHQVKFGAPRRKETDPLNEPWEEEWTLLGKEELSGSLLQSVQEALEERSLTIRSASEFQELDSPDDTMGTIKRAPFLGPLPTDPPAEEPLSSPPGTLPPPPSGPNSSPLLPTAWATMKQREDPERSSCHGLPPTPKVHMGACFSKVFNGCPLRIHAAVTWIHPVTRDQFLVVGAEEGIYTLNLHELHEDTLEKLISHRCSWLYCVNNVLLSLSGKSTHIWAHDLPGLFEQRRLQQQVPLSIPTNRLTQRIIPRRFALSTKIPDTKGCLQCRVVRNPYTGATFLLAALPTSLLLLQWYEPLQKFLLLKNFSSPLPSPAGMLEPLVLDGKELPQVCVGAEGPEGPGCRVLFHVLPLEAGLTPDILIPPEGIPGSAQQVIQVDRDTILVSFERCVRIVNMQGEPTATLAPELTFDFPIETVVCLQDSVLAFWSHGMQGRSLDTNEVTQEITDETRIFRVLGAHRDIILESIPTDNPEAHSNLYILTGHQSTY

ABL2 (human) = ABL2 (human) (UniProt P42684)
CHEK2 (human) = CHEK2 (human) (UniProt O96017)
FGFR2 (human) = FGFR2 (human) (UniProt P21802)
CAMK2B (human) = CAMK2B (human) (UniProt Q13554)
MAP3K10 (human) = MAP3K10 (human) (UniProt Q02779)
MAPK10 (human) = MAPK10 (human) (UniProt P53779)
PLK4 (human) = PLK4 (human) (UniProt O00444)
MAP3K3 (human) = MAP3K3 (human) (UniProt Q99759)
TGFBR1 (human) = TGFBR1 (human) (UniProt P36897)
MAP4K3 (human) = MAP4K3 (human) (UniProt Q8IVH8)
[1] = target: TYK2 JH2 pseudokinase (human) (UniProt P29597)
TYK2 JH2 pseudokinase (human), sequence (P29597 whole entry, looked up): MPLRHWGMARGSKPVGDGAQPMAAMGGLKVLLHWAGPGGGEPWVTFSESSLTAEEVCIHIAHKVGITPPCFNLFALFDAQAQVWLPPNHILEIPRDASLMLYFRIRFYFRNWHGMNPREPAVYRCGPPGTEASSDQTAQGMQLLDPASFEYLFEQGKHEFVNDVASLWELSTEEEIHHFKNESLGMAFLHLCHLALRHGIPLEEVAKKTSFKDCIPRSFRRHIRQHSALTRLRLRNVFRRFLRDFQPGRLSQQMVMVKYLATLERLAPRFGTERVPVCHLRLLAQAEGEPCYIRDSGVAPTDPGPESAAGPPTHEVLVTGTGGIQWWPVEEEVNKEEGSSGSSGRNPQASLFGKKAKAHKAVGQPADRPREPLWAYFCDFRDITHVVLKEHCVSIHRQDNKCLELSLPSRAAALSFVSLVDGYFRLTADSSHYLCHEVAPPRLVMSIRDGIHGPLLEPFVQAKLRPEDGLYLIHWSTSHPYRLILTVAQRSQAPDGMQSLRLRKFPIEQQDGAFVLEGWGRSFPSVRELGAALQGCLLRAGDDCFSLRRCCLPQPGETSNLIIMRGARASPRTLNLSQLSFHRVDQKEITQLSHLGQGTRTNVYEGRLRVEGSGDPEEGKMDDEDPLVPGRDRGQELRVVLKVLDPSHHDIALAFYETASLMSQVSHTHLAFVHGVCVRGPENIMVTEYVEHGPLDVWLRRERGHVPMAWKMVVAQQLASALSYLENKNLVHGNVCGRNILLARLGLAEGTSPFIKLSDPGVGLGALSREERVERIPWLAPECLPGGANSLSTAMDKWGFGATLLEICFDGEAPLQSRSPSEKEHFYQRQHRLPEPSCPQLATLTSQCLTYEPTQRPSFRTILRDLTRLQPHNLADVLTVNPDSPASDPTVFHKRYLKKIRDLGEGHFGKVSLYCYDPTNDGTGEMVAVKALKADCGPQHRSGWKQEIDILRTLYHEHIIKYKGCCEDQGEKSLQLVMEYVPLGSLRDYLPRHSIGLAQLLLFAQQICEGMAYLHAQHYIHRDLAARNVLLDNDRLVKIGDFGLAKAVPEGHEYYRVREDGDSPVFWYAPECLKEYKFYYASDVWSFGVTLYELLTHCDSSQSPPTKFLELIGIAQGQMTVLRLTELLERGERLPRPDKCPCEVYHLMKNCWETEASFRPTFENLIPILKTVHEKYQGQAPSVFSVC

MST4 (human) = MST4 (human) (UniProt Q9P289)
PKMYT1 (human) = PKMYT1 (human) (UniProt Q99640)
RIOK2 (human) = RIOK2 (human) (UniProt Q9BVS4)
ACVRL1 (human) = ACVRL1 (human) (UniProt P37023)
DYRK1B (human) = DYRK1B (human) (UniProt Q9Y463)
FLT4 (human) = FLT4 (human) (UniProt P35916)
FGFR1 (human) = FGFR1 (human) (UniProt P11362)
PIM2 (human) = PIM2 (human) (UniProt Q9P1W9)
FGFR3 (human) = FGFR3 (human) (UniProt P22607)
BMPR1A (human) = BMPR1A (human) (UniProt P36894)
PIP4K2B (human) = PIP4K2B (human) (UniProt P78356)
PIP4K2B (human), sequence (P78356 whole entry, looked up): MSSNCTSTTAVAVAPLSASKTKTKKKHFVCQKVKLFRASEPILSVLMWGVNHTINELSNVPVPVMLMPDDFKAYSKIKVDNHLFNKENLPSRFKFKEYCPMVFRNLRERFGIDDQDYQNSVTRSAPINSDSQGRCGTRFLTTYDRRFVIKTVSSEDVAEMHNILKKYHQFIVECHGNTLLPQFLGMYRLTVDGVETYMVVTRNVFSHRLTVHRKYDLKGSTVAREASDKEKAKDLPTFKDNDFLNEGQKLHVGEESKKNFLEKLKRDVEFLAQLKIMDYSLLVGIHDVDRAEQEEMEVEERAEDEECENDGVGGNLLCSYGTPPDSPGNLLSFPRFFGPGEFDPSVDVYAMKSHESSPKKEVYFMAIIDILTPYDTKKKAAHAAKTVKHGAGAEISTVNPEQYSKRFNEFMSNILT

FLT1 (human) = FLT1 (human) (UniProt P17948)
TGFBR2 (human) = TGFBR2 (human) (UniProt P37173)
PRKAA2 (human) = PRKAA2 (human) (UniProt P54646)
AKT3 (human) = AKT3 (human) (UniProt Q9Y243)
AKT3 (human), sequence (Q9Y243 whole entry, looked up): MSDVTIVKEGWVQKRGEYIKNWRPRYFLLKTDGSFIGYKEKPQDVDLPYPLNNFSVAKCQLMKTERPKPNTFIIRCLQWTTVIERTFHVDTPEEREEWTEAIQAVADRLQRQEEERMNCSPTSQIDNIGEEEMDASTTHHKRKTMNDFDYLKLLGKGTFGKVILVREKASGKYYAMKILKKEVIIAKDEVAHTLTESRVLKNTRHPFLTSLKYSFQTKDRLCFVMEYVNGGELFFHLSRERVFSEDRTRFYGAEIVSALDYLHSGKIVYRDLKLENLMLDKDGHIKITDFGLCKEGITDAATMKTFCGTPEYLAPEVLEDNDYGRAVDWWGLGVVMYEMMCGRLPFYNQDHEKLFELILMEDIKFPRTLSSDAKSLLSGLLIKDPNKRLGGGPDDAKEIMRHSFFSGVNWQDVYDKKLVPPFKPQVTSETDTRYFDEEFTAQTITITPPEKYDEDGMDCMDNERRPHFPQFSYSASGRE

PRKCE (human) = PRKCE (human) (UniProt Q02156)
PLK1 (human) = PLK1 (human) (UniProt P53350)
[2] = target: JAK2 JH1 catalytic (human) (UniProt O60674)
JAK2 JH1 catalytic (human), sequence (O60674 whole entry, looked up): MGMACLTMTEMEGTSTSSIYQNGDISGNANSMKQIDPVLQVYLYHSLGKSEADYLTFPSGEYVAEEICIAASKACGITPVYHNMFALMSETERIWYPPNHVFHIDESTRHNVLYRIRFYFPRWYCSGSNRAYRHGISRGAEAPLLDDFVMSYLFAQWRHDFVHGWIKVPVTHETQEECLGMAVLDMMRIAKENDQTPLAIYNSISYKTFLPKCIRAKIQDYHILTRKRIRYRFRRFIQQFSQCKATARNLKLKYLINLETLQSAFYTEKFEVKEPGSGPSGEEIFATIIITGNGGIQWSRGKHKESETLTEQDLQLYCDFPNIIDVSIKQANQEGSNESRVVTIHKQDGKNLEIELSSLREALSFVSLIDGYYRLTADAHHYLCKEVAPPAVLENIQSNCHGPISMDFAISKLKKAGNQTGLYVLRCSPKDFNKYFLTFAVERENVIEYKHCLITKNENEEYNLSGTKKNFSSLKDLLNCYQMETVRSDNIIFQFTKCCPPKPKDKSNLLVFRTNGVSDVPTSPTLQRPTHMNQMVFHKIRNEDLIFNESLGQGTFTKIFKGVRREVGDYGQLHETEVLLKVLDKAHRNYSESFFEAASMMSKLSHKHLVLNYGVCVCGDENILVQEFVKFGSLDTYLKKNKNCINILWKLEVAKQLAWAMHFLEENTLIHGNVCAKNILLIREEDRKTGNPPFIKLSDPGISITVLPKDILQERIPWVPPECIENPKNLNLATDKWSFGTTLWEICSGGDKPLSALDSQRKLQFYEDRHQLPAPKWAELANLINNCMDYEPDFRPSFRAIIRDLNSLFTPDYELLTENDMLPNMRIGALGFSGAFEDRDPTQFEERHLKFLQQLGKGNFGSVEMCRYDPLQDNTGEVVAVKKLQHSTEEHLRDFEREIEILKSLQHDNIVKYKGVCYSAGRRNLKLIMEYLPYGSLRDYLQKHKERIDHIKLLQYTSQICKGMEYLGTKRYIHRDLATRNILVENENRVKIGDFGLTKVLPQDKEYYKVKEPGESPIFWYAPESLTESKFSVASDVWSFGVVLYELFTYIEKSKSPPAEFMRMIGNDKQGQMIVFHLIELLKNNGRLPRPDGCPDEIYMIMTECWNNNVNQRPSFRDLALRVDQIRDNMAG

NEK2 (human) = NEK2 (human) (UniProt P51955)
CDK7 (human) = CDK7 (human) (UniProt P50613)

RPS6KA5 KD2 (human), sequence (O75582 whole entry, looked up): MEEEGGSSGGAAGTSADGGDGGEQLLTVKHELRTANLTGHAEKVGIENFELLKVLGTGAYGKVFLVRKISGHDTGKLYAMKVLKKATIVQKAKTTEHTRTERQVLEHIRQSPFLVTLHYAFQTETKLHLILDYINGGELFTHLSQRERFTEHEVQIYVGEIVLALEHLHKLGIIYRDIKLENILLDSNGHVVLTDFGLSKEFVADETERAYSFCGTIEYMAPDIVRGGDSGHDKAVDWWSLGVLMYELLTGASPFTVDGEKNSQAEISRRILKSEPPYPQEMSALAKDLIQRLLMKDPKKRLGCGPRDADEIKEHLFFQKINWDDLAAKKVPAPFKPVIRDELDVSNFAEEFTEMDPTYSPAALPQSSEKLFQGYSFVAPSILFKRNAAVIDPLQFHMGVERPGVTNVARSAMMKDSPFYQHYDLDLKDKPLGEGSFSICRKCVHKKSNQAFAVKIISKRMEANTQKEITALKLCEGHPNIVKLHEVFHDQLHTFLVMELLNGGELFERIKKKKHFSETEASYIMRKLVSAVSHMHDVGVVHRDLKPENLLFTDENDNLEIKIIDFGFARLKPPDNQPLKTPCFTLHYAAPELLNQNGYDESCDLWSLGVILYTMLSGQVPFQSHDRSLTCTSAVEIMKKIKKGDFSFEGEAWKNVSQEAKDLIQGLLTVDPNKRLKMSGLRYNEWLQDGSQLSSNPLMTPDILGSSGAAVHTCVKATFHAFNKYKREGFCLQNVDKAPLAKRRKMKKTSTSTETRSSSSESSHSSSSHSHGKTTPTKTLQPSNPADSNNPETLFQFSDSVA

SMILES	kinase still bound, per cent of control (EPHA4 (human)) [%]	kinase still bound, per cent of control (RPS6KA5 KD2 (human)) [%]	kinase still bound, per cent of control (STK17B (human)) [%]	kinase still bound, per cent of control (RPS6KA6 KD2 (human)) [%]	kinase still bound, per cent of control (AKT1 (human)) [%]	kinase still bound, per cent of control (CLK4 (human)) [%]	kinase still bound, per cent of control (FRK (human)) [%]	kinase still bound, per cent of control (MST1R (human)) [%]	kinase still bound, per cent of control (MAP4K2 (human)) [%]	kinase still bound, per cent of control (ABL2 (human)) [%]	kinase still bound, per cent of control (CHEK2 (human)) [%]	kinase still bound, per cent of control (FGFR2 (human)) [%]	kinase still bound, per cent of control (CAMK2B (human)) [%]	kinase still bound, per cent of control (MAP3K10 (human)) [%]	kinase still bound, per cent of control (MAPK10 (human)) [%]	kinase still bound, per cent of control (PLK4 (human)) [%]	kinase still bound, per cent of control (MAP3K3 (human)) [%]	kinase still bound, per cent of control (TGFBR1 (human)) [%]	kinase still bound, per cent of control (MAP4K3 (human)) [%]	kinase still bound, per cent of control [1] [%]	further results
CCN1CCN(Cc2ccc(Nc3ncc4c(n3)N(C)c3ccccc3C(=O)N4C)cc2C(F)(F)F)CC1	100	100	100	16	100	100	19	100	17	3	100	50	58	100	100	0.1	0.65	81	11	13	kinase still bound, per cent of control (MST4 (human)): 5.6%; kinase still bound, per cent of control (PKMYT1 (human)): 100%; kinase still bound, per cent of control (RIOK2 (human)): 100%; kinase still bound, per cent of control (ACVRL1 (human)): 100%; kinase still bound, per cent of control (DYRK1B (human)): 68%; kinase still bound, per cent of control (FLT4 (human)): 100%; kinase still bound, per cent of control (FGFR1 (human)): 17%; kinase still bound, per cent of control (PIM2 (human)): 30%; kinase still bound, per cent of control (FGFR3 (human)): 43%; kinase still bound, per cent of control (BMPR1A (human)): 8.2%; kinase still bound, per cent of control (PIP4K2B (human)): 31%; kinase still bound, per cent of control (FLT1 (human)): 100%; kinase still bound, per cent of control (TGFBR2 (human)): 94%; kinase still bound, per cent of control (PRKAA2 (human)): 5%; kinase still bound, per cent of control (AKT3 (human)): 100%; kinase still bound, per cent of control (PRKCE (human)): 81%; kinase still bound, per cent of control (PLK1 (human)): 27%; kinase still bound, per cent of control [2]: 0%; kinase still bound, per cent of control (NEK2 (human)): 100%; kinase still bound, per cent of control (CDK7 (human)): 4%
Nc1ccc(-c2ccc3ncc4ccc(=O)n(-c5cccc(C(F)(F)F)c5)c4c3c2)cn1	100	100	89	70	100	34	100	90	68	100	100	90	100	100	78	100	84	100	63	6.3	kinase still bound, per cent of control (MST4 (human)): 73%; kinase still bound, per cent of control (PKMYT1 (human)): 94%; kinase still bound, per cent of control (RIOK2 (human)): 70%; kinase still bound, per cent of control (ACVRL1 (human)): 59%; kinase still bound, per cent of control (DYRK1B (human)): 97%; kinase still bound, per cent of control (FLT4 (human)): 85%; kinase still bound, per cent of control (FGFR1 (human)): 95%; kinase still bound, per cent of control (PIM2 (human)): 100%; kinase still bound, per cent of control (FGFR3 (human)): 75%; kinase still bound, per cent of control (BMPR1A (human)): 100%; kinase still bound, per cent of control (PIP4K2B (human)): 100%; kinase still bound, per cent of control (FLT1 (human)): 100%; kinase still bound, per cent of control (TGFBR2 (human)): 84%; kinase still bound, per cent of control (PRKAA2 (human)): 95%; kinase still bound, per cent of control (AKT3 (human)): 100%; kinase still bound, per cent of control (PRKCE (human)): 69%; kinase still bound, per cent of control (PLK1 (human)): 94%; kinase still bound, per cent of control [2]: 64%; kinase still bound, per cent of control (NEK2 (human)): 100%; kinase still bound, per cent of control (CDK7 (human)): 51%
O=C(O)c1ccc(Nc2ncc3c(n2)-c2ccc(Cl)cc2C(c2c(F)cccc2F)=NC3)cc1	11	74	8.6	58	100	100	73	92	88	30	100	7.7	71	67	100	14	72	98	97	100	kinase still bound, per cent of control (MST4 (human)): 100%; kinase still bound, per cent of control (PKMYT1 (human)): 65%; kinase still bound, per cent of control (RIOK2 (human)): 99%; kinase still bound, per cent of control (ACVRL1 (human)): 64%; kinase still bound, per cent of control (DYRK1B (human)): 91%; kinase still bound, per cent of control (FLT4 (human)): 18%; kinase still bound, per cent of control (FGFR1 (human)): 14%; kinase still bound, per cent of control (PIM2 (human)): 36%; kinase still bound, per cent of control (FGFR3 (human)): 9%; kinase still bound, per cent of control (BMPR1A (human)): 36%; kinase still bound, per cent of control (PIP4K2B (human)): 100%; kinase still bound, per cent of control (FLT1 (human)): 12%; kinase still bound, per cent of control (TGFBR2 (human)): 58%; kinase still bound, per cent of control (PRKAA2 (human)): 67%; kinase still bound, per cent of control (AKT3 (human)): 100%; kinase still bound, per cent of control (PRKCE (human)): 72%; kinase still bound, per cent of control (PLK1 (human)): 100%; kinase still bound, per cent of control [2]: 100%; kinase still bound, per cent of control (NEK2 (human)): 73%; kinase still bound, per cent of control (CDK7 (human)): 77%

— the kinase profiling compilation of Christmann-Franck et al. (2016)
